# Assay results from patent US11603359B2, “Benzothiadiazepine compounds and their use as bile acid modulators” (Albireo AB, priority 2019, dated 2023).
# Assays:
# human LBAT = target: T1, human LBAT (Homo sapiens, UniProt Q14973); experiment: LBAT (h/m) assay, human LBAT-overexpressing cells, 3H-taurocholic acid uptake; assay type: cell-based; conditions: 0.3 μM 3H-taurocholic acid + 7.5 μM cold taurocholic acid, 20 minutes, read-out: hLBAT IC50
# T1 construct: expressed in transfected cells; Geneticin-selected LBAT-overexpressing cells
# T1 sequence (Q14973 1-349): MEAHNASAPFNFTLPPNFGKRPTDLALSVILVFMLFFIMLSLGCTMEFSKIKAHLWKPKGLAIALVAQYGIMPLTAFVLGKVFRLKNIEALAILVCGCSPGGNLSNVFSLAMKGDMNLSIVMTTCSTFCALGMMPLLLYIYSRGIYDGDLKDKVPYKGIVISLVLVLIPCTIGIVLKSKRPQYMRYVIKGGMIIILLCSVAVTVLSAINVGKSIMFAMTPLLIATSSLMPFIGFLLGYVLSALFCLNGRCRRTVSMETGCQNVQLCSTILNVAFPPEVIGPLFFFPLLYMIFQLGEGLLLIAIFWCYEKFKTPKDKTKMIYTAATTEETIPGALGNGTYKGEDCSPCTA
# Experimental: 20,000 cells (Human or Mouse LBAT-overexpressing cells) were seeded in 96-wells plate (Corning CLS3809) in 100 μL MEM-alpha medium (Gibco 12571-063) supplemented with 10% FBS (Gibco 10438026) containing Geneticin (Gibco 10131-027) (1 mg/mL) and incubated at 37° C. in 5% CO2 for 24 hours. After incubation, media was decanted from the wells and cells were washed two times with 300 μL of basal MEM-alpha medium (FBS-free). After decanting basal MEM-alpha medium each time, plates were tapped against paper towel to ensure maximum removal of residual media.
# For human LBAT, incubation mix was prepared by adding test inhibitor dilutions (3-fold serial dilution in DMSO (Sigma D2650), 10 points) in MEM-alpha (without FBS) containing 0.3 μM 3H-taurocholic acid (ARC ART-1368) and 7.5 μM cold taurocholic acid (Sigma T4009) (maintaining 0.2% final DMSO concentration). For mouse LBAT, incubation mix was prepared by adding test inhibitor dilutions (3-fold serial dilution in DMSO, 10 points) in MEM-alpha (without FBS) containing 0.3 μM 3H-taurocholic acid and 25 μM cold taurocholic acid maintaining 0.2% final DMSO concentration).
# 50 μL of incubation mix containing test inhibitors was then added to the wells (in duplicate) and the plates were incubated for 20 minutes in a CO2 incubator at 37° C. After incubation, the reaction was stopped by keeping the plates on ice water mix for 2-3 minutes and then the incubation mix was aspirated completely from the wells. The wells were washed two times with 250 μL of chilled unlabelled 1 mM taurocholic acid dissolved in HEPES (Gibco 15630080)-buffered (10 mM) HBSS (Gibco 14175079) (pH 7.4). The plates were tapped against a paper towel after every wash to ensure maximum removal of blocking buffer.
# 100 μL of MicroScint-20 (PerkinElmer 6013621) was added to the wells and kept overnight at room temperature before reading the plates in TopCount NXT™ Microplate Scintillation and Luminescence Counter from PerkinElmer under 3H Test protocol (set at 120 seconds reading time per well, with normal plate orientation).
# (§1) All test compounds were provided in powder form at room temperature. 10 mM DMSO stocks of the test compounds were prepared, aliquoted and stored at −20° C. From the 10 mM DMSO stock of the compounds, a 3-fold serial dilution in DMSO was prepared to get a total of 10 dilutions of the test compounds. 0.5 μL of this dilution in DMSO was added to 250 μL of FBS-free basal media containing 3H-taurocholic acid and cold taurocholic acid to prepare the incubation mixture.
# human IBAT = target: T2, human IBAT (Homo sapiens, UniProt Q12908); experiment: IBAT (h/m) assay, human IBAT-overexpressing cells, 3H-taurocholic acid uptake; assay type: cell-based; conditions: 0.25 μM 3H-taurocholic acid + 5 μM cold taurocholic acid, 20 minutes, read-out: hIBAT IC50
# T2 construct: expressed in transfected cells; Puromycin-selected IBAT-overexpressing cells
# T2 sequence (Q12908 1-348): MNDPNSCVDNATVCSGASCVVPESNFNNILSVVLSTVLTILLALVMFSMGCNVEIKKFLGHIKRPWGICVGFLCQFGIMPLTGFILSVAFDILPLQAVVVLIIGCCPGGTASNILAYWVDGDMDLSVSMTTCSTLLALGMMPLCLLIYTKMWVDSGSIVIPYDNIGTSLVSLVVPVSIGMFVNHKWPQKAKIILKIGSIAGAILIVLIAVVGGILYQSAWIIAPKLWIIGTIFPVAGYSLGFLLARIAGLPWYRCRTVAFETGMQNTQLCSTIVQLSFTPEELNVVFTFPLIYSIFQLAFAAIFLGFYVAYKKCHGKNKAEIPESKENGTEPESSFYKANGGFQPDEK
# Experimental: 10,000 cells (Human or Mouse IBAT-overexpressing cells) were seeded in 96-wells plate (Corning CLS3809) in 200 μL MEM-alpha medium (Gibco 12571-063) supplemented with 10% FBS (Gibco 10438026) containing Puromycin (Gibco A1113803) (10 μg/mL) and incubated at 37° C. in 5% CO2 for 48 hours. After incubation, media was decanted from the wells and cells were washed two times with 300 μL of basal MEM-alpha medium (FBS-free). After decanting basal MEM-alpha medium each time, plates were tapped against paper towel to ensure maximum removal of residual media. Test inhibitor dilutions (highest test concentration being 10 μM, 3-fold serial dilution, 10 points) prepared in DMSO (Sigma D2650) were added in incubation mix (maintaining 0.2% final DMSO concentration) containing 0.25 μM 3H-taurocholic acid (ARC ART-1368) and 5 μM of cold taurocholic acid (Sigma T4009). 50 μL of incubation mix containing test inhibitors was then added to the wells (in duplicate) and the plates were incubated for 20 minutes in a CO2 incubator at 37° C. After incubation, the reaction was stopped by keeping the plates on ice water mix for 2-3 minutes and then the incubation mix was aspirated completely from the wells. The wells were washed two times with 250 μL of chilled unlabelled 1 mM taurocholic acid dissolved in HEPES (Gibco 15630080)-buffered (10 mM) HBSS (Gibco 14175079) (pH 7.4). The plates were tapped against a paper towel after every wash to ensure maximum removal of blocking buffer.
# 100 μL of MicroScint-20 (PerkinElmer 6013621) was added to the wells and kept overnight at room temperature before reading the plates in TopCount NXT™ Microplate Scintillation and Luminescence Counter from PerkinElmer under 3H Test protocol (set at 120 seconds reading time per well).
# as §1
SMILES,IC50 (human LBAT) [µM],IC50 (human IBAT) [µM]
"CCCCC1(CC)CN(c2ccccc2)c2cc(SC)c(OCCC(=O)O)cc2S(=O)(=O)N1 (racemic) [Example 2, 3-((3-butyl-3-ethyl-7-(methylthio)-1,1-dioxido-5-phenyl-2,3,4,5-tetrahydro-1,2,5-benzothiadiazepin-8-yl)oxy)propanoic acid]",0.736,0.004
"CCCCC1(CCCC)CN(c2ccccc2)c2cc(SC)c(OCC(O)C(=O)O)cc2S(=O)(=O)N1 (single isomer, unassigned) [Example 6, 3-((3,3-dibutyl-7-(methylthio)-1,1-dioxido-5-phenyl-2,3,4,5-tetrahydro-1,2,5-benzothiadiazepin-8-yl)oxy)-2-hydroxypropanoic acid]",3.66,0.014
"CCCCC1(CC)CN(c2ccccc2)c2cc(N(C)C)c(OCCC(=O)O)cc2S(=O)(=O)N1 (single isomer, unassigned) [Example 13, 3-((3-butyl-7-(dimethylamino)-3-ethyl-1,1-dioxido-5-phenyl-2,3,4,5-tetrahydro-1,2,5-benzothiadiazepin-8-yl)oxy)propanoic acid]",2.22,0.015

# Compounds with a lower IC50 (human LBAT), results first:
IC50 (human LBAT) [µM],IC50 (human IBAT) [µM],SMILES
0.283,0.023,"CCCCC1(CC)CN(c2ccccc2)c2cc(SC)c(OCCC(=O)O)cc2S(=O)(=O)N1 (single isomer, unassigned) [Example 3, 3-((3-butyl-3-ethyl-7-(methylthio)-1,1-dioxido-5-phenyl-2,3,4,5-tetrahydro-1,2,5-benzothiadiazepin-8-yl)oxy)propanoic acid]"
0.342,0.006,"CCCCC1(CC)CN(c2ccccc2)c2cc(SC)c(OCC(N)C(=O)O)cc2S(=O)(=O)N1 (stereo not shown) [Example 14, O-(3-butyl-3-ethyl-7-(methylthio)-1,1-dioxido-5-phenyl-2,3,4,5-tetrahydro-1,2,5-benzothiadiazepin-8-yl)serine]"
